Earlier results in patent US9011962B2, “Bovine meat compositions having enhanced quality, nutritive and health values obtained from enrichment diets” (priority 2007, dated 2015).

Key:
[1] = in vivo

Structure (SMILES)	Bioavailability (relative) [1]	upper limit from food and supplements likely to pose no risk of adverse health effects (FDA) [micrograms per day]	safe daily intake for human use (Rayman review)	lowest-observed adverse effect level of selenium intake (recognized by FDA) [micrograms per day]	no-observed adverse effect level (recognized by FDA) [micrograms per day]
C[Se]CC[C@H](N)C(=O)O [Selenomethionine, selenomethionine]	245				
[Se] [selenium]		400	approximately 15 micrograms per kilogram body weight per day	900	800
